Laboratory results taken from US11767323B2, “Tricyclic pyridone compounds as JAK2 V617F inhibitors” (Incyte Corporation, priority 2020, dated 2023).

What was measured:
[1] = target: catalytic domain (JH1, amino acids 808-1132) of human JAK2 (Homo sapiens (Human), UniProt O60674); assay: JAK2 HTRF Enzyme Activity Assay; format: biochemical; conditions: JAK2 0.015 nM, ATP (30 μM or 1 mM), 60 minutes at 25° C.
Procedure: Example D. JAK2 HTRF Enzyme Activity Assay
JAK2 enzyme activity assays utilize catalytic domain (JH1, amino acids 808-1132) of human JAK2 expressed as N-terminal His-tagged protein in a baculovirus expression system (BPS Bioscience, Catalog #40450). The assays was conducted in black 384-well polystyrene plates in a final reaction volume of 20 μL. JAK2 (0.015 nM) was incubated with compounds (100 nL serially diluted in DMSO) in the presence of ATP (30 μM or 1 mM) and 500 nM Biotin-labeled EQEDEPEGDYFEWLE (SEQ ID NO.: 1) peptide (BioSource International, custom synthesis) in assay buffer (50 mM Tris, pH=7.5, 10 mM MgCl2, 0.01% Brij-35, 0.1% BSA, 1 mM EGTA, 5% Glycerol and 5 mM DTT) for 60 minutes at 25° C. The reactions were stopped by the addition of 10 μL of detection buffer (50 mM Tris, pH 7.8, 0.5 mg/mL BSA, 150 mM NaCl), supplemented with EDTA, LANCE Eu-W1024 anti-phosphotyrosine (PY20), (PerkinElmer, Catalog #AD0067) and Streptavidin SureLight APC (PerkinElmer Catalog #CR130-100), for a final concentration of 15 mM, 1.5 nM and 75 nM, respectively. HTRF signals were read after 30 minutes incubation at room temperature on a PHERAstar FS plate reader (BMG LAB TECH). Data was analyzed with IDBS XLfit and GraphPad Prism 5.0 software using a four parameter dose response curve to determine IC50 for each compound.

[2] = target: catalytic domain (JH1, amino acids 826-1132) of human JAK2 (Homo sapiens (Human), UniProt O60674); assay: JAK2 LanthaScreen JH1 Binding Assay; conditions: JAK2 JH1 1.5 nM, 50 nM tracer, 2 hours at 25° C.; read-out: JH1 BIND IC50
catalytic domain (JH1, amino acids 826-1132) of human JAK2, sequence (O60674 826-1132): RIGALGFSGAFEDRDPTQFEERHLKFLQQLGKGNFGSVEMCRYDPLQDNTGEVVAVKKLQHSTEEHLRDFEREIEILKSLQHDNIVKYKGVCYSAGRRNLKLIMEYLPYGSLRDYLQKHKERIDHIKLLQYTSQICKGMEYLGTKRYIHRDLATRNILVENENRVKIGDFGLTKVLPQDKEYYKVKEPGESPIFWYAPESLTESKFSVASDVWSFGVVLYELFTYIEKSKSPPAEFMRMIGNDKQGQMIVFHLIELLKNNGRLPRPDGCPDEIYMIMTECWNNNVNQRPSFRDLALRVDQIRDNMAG
Procedure: Example A. JAK2 LanthaScreen JH1 Binding Assay
JAK2 JH1 binding assay utilizes catalytic domain (JH1, amino acids 826-1132) of human JAK2 expressed as N-terminal FLAG-tagged, biotinylated protein in a baculovirus expression system (Carna Biosciences, Product #08-445-20N). The assay was conducted in black 384-well polystyrene plates in a final reaction volume of 20 μL. JAK2 JH1 (1.5 nM) was incubated with compounds (100 nL serially diluted in DMSO) in the presence of 50 nM Fluorescent JAK2-JH1 Tracer and 0.5 nM Streptavidin-Tb cryptate (Cisbio Part #610SATLB) in assay buffer (50 mM Tris, pH=7.5, 10 mM MgCl2, 0.01% Brij-35, 0.1% BSA, 1 mM EGTA, 5% Glycerol and 5 mM DTT). Non-specific binding was accessed in the presence of 2 mM ATP. After incubation for 2 hours at 25° C., LanthaScreen signals were read on a PHERAstar FS plate reader (BMG LABTECH). Data was analyzed with IDBS XLfit and GraphPad Prism 5.0 software using a four parameter dose response curve to determine IC50 for each compound.

[3] = target: pseudo-kinase domain (JH2, amino-acids 536-812) of human V617F mutant JAK2 (Homo sapiens (Human), UniProt O60674, F794H/V617F/W659A/W777A); assay: JAK2 LanthaScreen JH2-V617F Binding Assay; conditions: JAK2 JH2-V617F 0.26 nM, 50 nM tracer, 1 hour at 25° C.; read-out: JH2 BIND V617F IC50
pseudo-kinase domain (JH2, amino-acids 536-812) of human V617F mutant JAK2, sequence (O60674 536-812 V617F/W659A/W777A/F794H): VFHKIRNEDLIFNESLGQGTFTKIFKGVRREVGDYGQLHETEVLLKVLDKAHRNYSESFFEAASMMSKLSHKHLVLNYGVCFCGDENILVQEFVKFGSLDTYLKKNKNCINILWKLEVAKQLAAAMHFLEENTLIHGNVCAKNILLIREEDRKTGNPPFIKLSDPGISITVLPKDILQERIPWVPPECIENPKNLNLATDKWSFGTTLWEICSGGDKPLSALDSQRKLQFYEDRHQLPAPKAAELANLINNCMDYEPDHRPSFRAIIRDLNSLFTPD
Procedure: Example C. JAK2 LanthaScreen JH2-V617F Binding Assay
(§1) JAK2 JH2-V617F binding assay utilizes pseudo-kinase domain (JH2, amino-acids 536-812 with 3 surface mutations W659A, W777A, F794H) of human V617F mutant JAK2 expressed as C-terminal His-Avi-tagged, biotinylated protein in a baculovirus expression system (BPS Bioscience, Catalog #79498). The assay was conducted in black 384-well polystyrene plates in a final reaction volume of 20 μL. JAK2 JH2-V617F (0.26 nM) was incubated with compounds (100 nL serially diluted in DMSO) in the presence of 50 nM Fluorescent JAK2-JH2 Tracer (MedChem Express Catalog #HY-102055) and 0.25 nM Streptavidin-Tb cryptate (Cisbio Part #610SATLB) in assay buffer (50 mM Tris, pH=7.5, 10 mM MgCl2, 0.01% Brij-35, 0.1% BSA, 1 mM EGTA, 5% Glycerol and 5 mM DTT). Non-specific binding was accessed in the presence of 2 mM ATP. After incubation for 1 hour at 25° C., LanthaScreen signals were read on a PHERAstar FS plate reader (BMG LABTECH). Data was analyzed with IDBS XLfit and GraphPad Prism 5.0 software using a four parameter dose response curve to determine IC50 for each compound.

[4] = target: pseudo-kinase domain (JH2, amino-acids 536-812) of human Wild Type JAK2 (Homo sapiens (Human), UniProt O60674, F794H/W659A/W777A); assay: JAK2 LanthaScreen JH2-WT Binding Assay; conditions: JAK2 JH2-WT 0.145 nM, 50 nM tracer, 1 hour at 25° C.; read-out: JH2 BIND WT IC50
pseudo-kinase domain (JH2, amino-acids 536-812) of human Wild Type JAK2, sequence (O60674 536-812 W659A/W777A/F794H): as the sequence (O60674 536-812 V617F/W659A/W777A/F794H) above, with F82V counted along it
Procedure: Example B. JAK2 LanthaScreen JH2-WT Binding Assay
as §1, with “JH2-WT” for “JH2-V617F”, “Wild Type” for “V617F mutant”, “#79463).” for “#79498).”, “JH2-WT (0.145” for “JH2-V617F (0.26”, “LAB TECH).” for “LABTECH).”

catalytic domain (JH1, amino acids 808-1132) of human JAK2, sequence (O60674 808-1132): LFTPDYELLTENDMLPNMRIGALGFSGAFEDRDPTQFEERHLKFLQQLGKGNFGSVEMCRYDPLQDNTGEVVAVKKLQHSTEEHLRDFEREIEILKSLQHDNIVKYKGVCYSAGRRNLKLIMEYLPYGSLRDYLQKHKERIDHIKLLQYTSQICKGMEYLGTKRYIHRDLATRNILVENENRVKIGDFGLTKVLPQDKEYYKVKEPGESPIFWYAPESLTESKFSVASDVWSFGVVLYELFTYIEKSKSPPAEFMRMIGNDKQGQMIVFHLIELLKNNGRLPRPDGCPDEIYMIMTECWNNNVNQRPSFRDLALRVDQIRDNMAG

| Structure (SMILES) | IC50 [1] | IC50 [2] | IC50 [3] | IC50 [4] |
| --- | --- | --- | --- | --- |
| Cn1c(=O)c(-c2ccc(C(=O)O)cc2)cc2c3cc(-c4ccc(CN5CCC(S(C)(=O)=O)CC5)cc4)[nH]c3ncc21 [Example 14, 4-(6-Methyl-2-(4-((4-(methylsulfonyl)piperidin-1-yl)methyl)phenyl)-7-oxo-6,7-dihydro-3H-pyrrolo[3,2-f][1,7]naphthyridin-8-yl)benzoic acid] | 100 to 500 nM | 100 to 500 nM | ≤ 100 nM | ≤ 100 nM |
| CCn1c(=O)c(-c2ccc(C(=O)O)cc2)cc2c3cc(-c4ccc(CN5CCC(S(C)(=O)=O)CC5)cc4)[nH]c3ncc21 [Example 15, 4-(6-Ethyl-2-(4-((4-(methylsulfonyl)piperidin-1-yl)methyl)phenyl)-7-oxo-6,7-dihydro-3H-pyrrolo[3,2-f][1,7]naphthyridin-8-yl)benzoic acid] | 1000 to 10000 nM | 1000 to 10000 nM | 1000 to 10000 nM | 500 to 1000 nM |
| CCc1c(-c2ccc(C(=O)O)cc2)c(=O)n(C)c2cnc3[nH]c(-c4ccc(CN5CCC(S(C)(=O)=O)CC5)cc4)cc3c12 [Example 16, 4-(9-Ethyl-6-methyl-2-(4-((4-(methylsulfonyl)piperidin-1-yl)methyl)phenyl)-7-oxo-6,7-dihydro-3H-pyrrolo[3,2-f][1,7]naphthyridin-8-yl)benzoic acid] | 100 to 500 nM | 100 to 500 nM | ≤ 100 nM | ≤ 100 nM |
| Cc1cc(=O)[nH]c2cnc3[nH]c(-c4ccc(CN5CCC(S(C)(=O)=O)CC5)cc4)cc3c12 [Example 17, 9-Methyl-2-(4-((4-(methylsulfonyl)piperidin-1-yl)methyl)phenyl)-3,6-dihydro-7H-pyrrolo[3,2-f][1,7]naphthyridin-7-one] | 1000 to 10000 nM | 1000 to 10000 nM | 1000 to 10000 nM | 1000 to 10000 nM |
| Cc1c(-c2ccc([N+](=O)[O-])cc2)c(=O)[nH]c2cnc3[nH]c(-c4ccc(CN5CCC(S(C)(=O)=O)CC5)cc4)cc3c12 [Example 18, 9-Methyl-2-(4-((4-(methylsulfonyl)piperidin-1-yl)methyl)phenyl)-8-(4-nitrophenyl)-3,6-dihydro-7H-pyrrolo[3,2-f][1,7]naphthyridin-7-one] | 1000 to 10000 nM | 1000 to 10000 nM | 1000 to 10000 nM | 500 to 1000 nM |
| Cc1c(-c2ccc3c(c2)OCCO3)c(=O)[nH]c2cnc3[nH]c(-c4ccc(CN5CCC(S(C)(=O)=O)CC5)cc4)cc3c12 [Example 19, 8-(2,3-Dihydrobenzo[6][1,4]dioxin-6-yl)-9-methyl-2-(4-((4-(methylsulfonyl)piperidin-1-yl)methyl)phenyl)-3,6-dihydro-7H-pyrrolo[3,2-f][1,7]naphthyridin-7-one] | 1000 to 10000 nM | 1000 to 10000 nM | 1000 to 10000 nM | 1000 to 10000 nM |
| COc1c(-c2ccccc2)c(=O)n(C)c2cnc3[nH]c(-c4ccc(CN5CCC(S(C)(=O)=O)CC5)cc4)cc3c12 [Example 20, 9-Methoxy-6-methyl-2-(4-((4-(methylsulfonyl)piperidin-1-yl)methyl)phenyl)-8-phenyl-3,6-dihydro-7H-pyrrolo[3,2-f][1,7]naphthyridin-7-one] | ≤ 100 nM | ≤ 100 nM | 100 to 500 nM | ≤ 100 nM |
| Cc1cc(-c2c(C3CCOCC3)c3c4cc(-c5ccc(CN6CCC(S(C)(=O)=O)CC6)cc5)[nH]c4ncc3n(C)c2=O)on1 [Example 21, 6-Methyl-8-(3-methylisoxazol-5-yl)-2-(4-((4-(methylsulfonyl)piperidin-1-yl)methyl)phenyl)-9-(tetrahydro-2H-pyran-4-yl)-3,6-dihydro-7H-pyrrolo[3,2-f][1,7]naphthyridin-7-one] | 100 to 500 nM | 100 to 500 nM | ≤ 100 nM | ≤ 100 nM |
| COC1CCC(c2c(-c3cc(C)no3)c(=O)n(C)c3cnc4[nH]c(-c5cnn(C)c5)cc4c23)CC1 (stereo not drawn) [Example 22, 9-(4-Methoxycyclohexyl)-6-methyl-2-(1-methyl-1H-pyrazol-4-yl)-8-(3-methylisoxazol-5-yl)-3,6-dihydro-7H-pyrrolo[3,2-f][1,7]naphthyridin-7-one] | 100 to 500 nM | 100 to 500 nM | ≤ 100 nM | ≤ 100 nM |
| Cc1cc(-c2c(-c3ccccc3)c3c4cc(-c5cnn(C)c5)[nH]c4ncc3n(C)c2=O)on1 [Example 23, 6-methyl-2-(1-methyl-1H-pyrazol-4-yl)-8-(3-methylisoxazol-5-yl)-9-phenyl-3,6-dihydro-7H-pyrrolo[3,2-f][1,7]naphthyridin-7-one] | 100 to 500 nM | 100 to 500 nM | ≤ 100 nM | ≤ 100 nM |
| COC1CCC(c2cc(=O)n(C)c3cnc4[nH]c(-c5cnn(C)c5)cc4c23)CC1 (stereo not drawn) [Example 24, 9-(4-methoxycyclohexyl)-6-methyl-2-(1-methyl-1H-pyrazol-4-yl)-3,6-dihydro-7H-pyrrolo[3,2-f][1,7]naphthyridin-7-one] | ≤ 100 nM | ≤ 100 nM | ≤ 100 nM | ≤ 100 nM |
| Cc1cc(-c2c(-c3ccc(C(=O)NCCO)cc3)c3c4cc(-c5cnn(C)c5)[nH]c4ncc3n(C)c2=O)on1 [Example 25, N-(2-hydroxyethyl)-4-(6-methyl-2-(1-methyl-1H-pyrazol-4-yl)-8-(3-methylisoxazol-5-yl)-7-oxo-6,7-dihydro-3H-pyrrolo[3,2-f][1,7]naphthyridin-9-yl)benzamide] | 100 to 500 nM | 500 to 1000 nM | ≤ 100 nM | ≤ 100 nM |
